The source of these data is patent publication EP1285920A1, “C10 Ester sustituted taxanes as antitumor agents” (Florida State University Research Foundation, Inc., priority 2001, dated 2003).

The subject of one series is HCT116. The series is described as follows: In Vitro cytotoxicity measured by the cell colony formation assay. To be noted: Homo sapiens, HCT-116; read-out: IN VITRO ID 50 HCT116. The class given is cell-based, human. The method in brief: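 Four hundred cells per dish in McCoy's 5a medium with 10% FBS were allowed to attach for 5 h at 37 °C. They were then exposed to compound for 72 h at 37 °C, added as a 10× stock made fresh in medium. After HBSS rinsing and refeeding, colonies were counted after 7 days.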

For series [1], the system named is MX-1 human breast carcinoma. The class given is in vivo. The note with it: for Toxic Deaths / Complete Response / Partial Response / Stable Disease: number of mice, mg/kg: 0499 80, 0550 73, 0611 113, 0748 200, 6 mice/group; for Complete Response / Partial Response / Stable Disease: Day 63; for % Reduction (Weight): po, 432 h. The procedure: (§1) Antitumor compounds were administered orally in a study to investigate whether such a formulation is efficacious against the MX-1 human breast carcinoma xenograft. Antitumor compound 0499 was formulated as Solution 1 in Example 6. Antitumor compound 0550 was formulated as Solution 2 in Example 6. Antitumor compound 0611 was formulated as Solution 3 in Example 6. Antitumor compound 0748 was formulated as Solution 4 in Example 6. Other antitumor compounds were formulated similarly. The compounds were prepared in a vehicle of 90% saline, 5% Cremophor, and 5% ethanol.
(§2) Female nu/nu mice (11-12 weeks of age; implanted subcutaneously with 1 mm^3 MX-1 human breast carcinoma fragments in the flank) were sorted into one control group (n=10) and four treatment (n=6) groups (group mean tumor size of 47-49 mg). The study was terminated on Day 63.

In another series the test system is blood cell populations. Briefly: Effect of oral treatment on blood cell populations and body weight in the MX-1 study (Example 22). The format is in vivo, nu/nu mice. To be noted: mg/kg: 0499 80, 0550 73, 0611 113, 0748 200; for Monocytes (K/µL) / Neutrophils (K/µL): Day 4; for Monocytes (K/µL) / Neutrophils (K/µL) / Maximum Weight Loss (Day): single oral bolus Day 1; for Maximum Weight Loss (Day): body weight, day of maximum in parentheses in the cell. The procedure: as §1, §2
In addition to survival and tumor regression responses, the effect of treatment on blood cell populations was assessed. The major effect of these antitumor compounds on blood cell populations was a marked reduction in the neutrophil cell number. As well, monocyte depletion correlated fairly well with neutrophil reduction for each antitumor compound. […] There was a correlation between antitumor activity and reduced neutrophil count. In general, toxicity (as determined by neutrophil depletion) and weight loss correlated with efficacy. […] Importantly, the toxicities observed with the very efficacious antitumor compounds were manageable and reversible; neutrophil count and body weight rebounded from their low points in just a few days. Table 20 summarizes the weight reduction, neutrophil and monocyte measurements on Day 4, with tumor weight reduction calculated at Day 18: Table 20

In a further series the test system is HCT116 carcinoma. The note with it: number of 5 mice; i.v. qd x 1 at MTD, Day 60; mg/kg: Taxol 36 (split doses), 0503 72.6, 0536 49, 0663 159, 0670 123, 0687 159, 0706 108, 0908 159, 0947 76.9, 0951 72.6, 0983 72.6, 0999 49, 1003 49, 1011 108. The method in brief:
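Mice bearing HCT116 tumours received a single i.v. maximum tolerated dose per compound, formulated in 5% ethanol, 5% Cremophor, 90% isotonic saline. Study ended on Day 60; complete response meant no palpable tumour at study end.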

The subject of a further series is MX-1 carcinoma. The note with it: number of 6 mice; i.v. qd x 1 at MTD, Day 60; mg/kg: Taxol 36 (split dose), 0503 72.6, 0536 49, 0663 159, 0670 123, 0687 159, 0706 108, 0908 159, 0947 76.9, 0951 72.6, 0983 67.4, 0999 49, 1003 49, 1011 108. The method in brief: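 Mice dosed with a single i.v. bolus (qd x 1) at each compound's MTD, formulated in 5% ethanol, 5% Cremophor, 90% isotonic saline. Study ended Day 60; complete response = tumor not palpable at study end.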

The next series deals with A2780 ovarian carcinoma. The note with it: number of mice; i.v. qd x 1 at estimated MTD (Taxol 24 mg/kg, Taxotere 70 mg/kg, 0983 72.6 mg/kg); 5 mice/group (Taxotere 6). On the procedure:
Dosing was initiated on Day 1. […] Taxotere was given i.v. on a qd x 1 schedule at a dose of 70 mg/kg. […] The study was terminated on Day 60. Treatment groups are detailed in Table 7.

A further series has as its system SKMES lung carcinoma. Briefly: In vivo evaluation of oral administration against SKMES human lung carcinoma xenograft (Example 21). To be noted: number of mice, single oral bolus Day 1, mg/kg: Taxol 40, 0687 228, 0503 73, 6 mice/group. The procedure: Female Nu/Nu mice (6-8 weeks of age; implanted with 1 mm^3 SKMES lung carcinoma fragments in the flank) were sorted into treatment groups of six mice each. […] Treatments were administered as a single oral bolus on Day 1, and the study was terminated on Day 60.
A complete response is obtained if the tumor is not palpable at the end of the study.
The total response rate is defined as the percentage of evaluable animals (excluding deaths due to procedure or toxicity) in a group that experience complete or partial responses at the termination of the study.

Where [2] appears, read: Day 4, vs vehicle, single oral bolus.

Marks after values point to notes of the source that are not given here.

Turning to `CCC(=O)O[C@H]1C(=O)[C@@]2(C)[C@H]([C@H](OC(=O)c3ccccc3)[C@]3(O)C[C@H](OC(=O)[C@H](O)[C@@H](NC(=O)c4ccccc4)c4ccccc4)C(C)=C1C3(C)C)[C@]1(OC(C)=O)CO[C@@H]1C[C@@H]2O` [Compound 0748], the IC50 with HCT116 was < 10 nM. The “antitumor activity” value in series [1] (MX-1, single oral bolus Day 1) is listed as “significant survival extensions compared to vehicle control mice”. Further, in series [1] (single oral bolus Day 1), the “Toxic Deaths” value was 0, the “Complete Response” value was 0, the “Partial Response” value was found to be 0 and the “Stable Disease” value is listed as 1. In series [1], the “% Reduction (Weight)” value came to 69.1%. The “% Reduction (Neutrophils)” value with blood cell populations (setting [2]) was found to be 70.5%. In addition, in the series on blood cell populations, the “Monocytes (K/µL)” value is reported as 0.117 K/µL, the “Neutrophils (K/µL)” value is 0.269 K/µL and the “Maximum Weight Loss (Day)” value is -4.6% (5).
For the compound `CCC(=O)O[C@H]1C(=O)[C@@]2(C)[C@H]([C@H](OC(=O)c3ccccc3)[C@]3(O)C[C@H](OC(=O)[C@H](O)[C@@H](NC(=O)OC(C)(C)C)c4ccccc4)C(C)=C1C3(C)C)[C@]1(OC(C)=O)CO[C@@H]1C[C@@H]2O` [Compound 0611], in the series with HCT116, the IC50 was < 10 nM. Besides, the complete tumor regressions result in series [1] (MX-1, single oral bolus Day 1, six mice per group (0611: five evaluable), ended Day 63) is reported as “four”. In series [1] (single oral bolus Day 1), the “Toxic Deaths” value was 1^a, the “Complete Response” value is listed as 4, the “Partial Response” value is 0 and the “Stable Disease” value worked out at 0. Moreover, in series [1], the “% Reduction (Weight)” value is reported as 100.0%. In the series with blood cell populations (setting [2]), the “% Reduction (Monocytes)” value is on record as 56.3% and the “% Reduction (Neutrophils)” value came to 93.7%. Also, in the series on blood cell populations, the “Monocytes (K/µL)” value was 0.042 K/µL, the “Neutrophils (K/µL)” value is listed as 0.057 K/µL and the “Maximum Weight Loss (Day)” value is listed as -15.0% (5).
Take `CCC(=O)O[C@H]1C(=O)[C@@]2(C)[C@H]([C@H](OC(=O)c3ccccc3)[C@]3(O)C[C@H](OC(=O)[C@H](O)[C@@H](NC(=O)c4ccccc4)c4cccs4)C(C)=C1C3(C)C)[C@]1(OC(C)=O)CO[C@@H]1C[C@@H]2O` [Compound 0687]: the “Toxic Deaths” value in the series with HCT116 carcinoma is recorded as 0; in the series with MX-1 carcinoma, 1; in the series with A2780 ovarian carcinoma it was 0; in the series on SKMES lung carcinoma, 1^a. Further, the “Complete Response” value in the series on SKMES lung carcinoma (Day 60) turned out to be 4. The “Partial Response” value in the series with SKMES lung carcinoma (Day 60) came out at 1. The “Stable Disease” value with SKMES lung carcinoma (Day 60) is recorded as 0.
